{
  "source": "ChEMBL document CHEMBL1201862",
  "about": "“PubChem BioAssay data set” (2004)",
  "key": {"[1]": {"biological_target": "T1, Carboxy-terminal domain RNA polymerase II polypeptide A small phosphatase 1 (Homo sapiens, UniProt Q9GZU7)", "T1 sequence (Q9GZU7 whole entry)": "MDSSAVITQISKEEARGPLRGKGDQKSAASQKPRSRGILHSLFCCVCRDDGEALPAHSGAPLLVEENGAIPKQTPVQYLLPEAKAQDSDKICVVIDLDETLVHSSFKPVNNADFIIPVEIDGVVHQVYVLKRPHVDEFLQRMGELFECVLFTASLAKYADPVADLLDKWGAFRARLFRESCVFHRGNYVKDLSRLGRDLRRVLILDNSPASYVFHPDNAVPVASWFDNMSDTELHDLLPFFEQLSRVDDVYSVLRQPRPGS", "test": "inhibitors of CTDSP1, concentration-response testing, biochemical assay, absorbance-based, actives from ultra-high-throughput screening (AID 540297)", "assay_type": "functional"}, "[2]": {"biological_target": "Mitochondrial peptide methionine sulfoxide reductase (Bos taurus, UniProt P54149)", "sequence (P54149 whole entry)": "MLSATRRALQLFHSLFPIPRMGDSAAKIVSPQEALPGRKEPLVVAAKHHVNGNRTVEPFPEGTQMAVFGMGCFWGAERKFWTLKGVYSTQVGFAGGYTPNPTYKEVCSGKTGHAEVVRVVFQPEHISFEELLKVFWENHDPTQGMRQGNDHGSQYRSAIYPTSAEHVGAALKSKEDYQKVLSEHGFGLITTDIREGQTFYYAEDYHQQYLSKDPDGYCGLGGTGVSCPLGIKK", "assay_type": "functional"}, "[3]": {"biological_target": "Aryl hydrocarbon receptor (Homo sapiens, UniProt P35869)", "test": "Luminescence-based cell-based high throughput dose response assay for activators of the Aryl Hydrocarbon Receptor (AHR). [Related pubchem assays: 2796 (Primary screen (AHR activators in singlicate)), 2845 (Confirmation screen (AHR activators in triplicate)), 434939 (Counterscreen (PXR activators in triplicate)), 2804 (Summary (AHR activators))]", "assay_type": "ADME"}, "[4]": {"test": "enhancers of respiration in Yfh1-depleted yeast, dose response, Friedreich's ataxia, plus single-dose screen (AID 1465);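 further: yeast depleted of Yfh1p frataxin homolog grown on glycerol needing respiration; WST-1 tetrazolium dye reduction as measure of cellular dehydrogenase metabolic activity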", "assay_type": "functional"}, "[5]": {"biological_target": "Bifunctional protein GlmU (Mycobacterium tuberculosis, UniProt P9WMN3)", "sequence (P9WMN3 whole entry)": "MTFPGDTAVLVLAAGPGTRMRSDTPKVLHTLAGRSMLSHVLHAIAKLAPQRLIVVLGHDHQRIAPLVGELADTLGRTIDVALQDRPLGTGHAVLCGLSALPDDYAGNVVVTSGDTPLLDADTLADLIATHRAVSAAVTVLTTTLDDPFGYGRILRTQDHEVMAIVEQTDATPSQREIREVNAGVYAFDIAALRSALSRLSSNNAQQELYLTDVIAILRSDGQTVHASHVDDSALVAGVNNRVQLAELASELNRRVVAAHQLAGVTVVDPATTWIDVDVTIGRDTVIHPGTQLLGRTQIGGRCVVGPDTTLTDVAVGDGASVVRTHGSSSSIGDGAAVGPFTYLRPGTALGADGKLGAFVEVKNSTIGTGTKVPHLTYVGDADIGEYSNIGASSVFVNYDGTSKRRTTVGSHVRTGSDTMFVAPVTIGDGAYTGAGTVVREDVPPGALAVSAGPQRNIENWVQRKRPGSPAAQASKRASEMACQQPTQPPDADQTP", "test": "Inhibitors of Mycobacterial Glucosamine-1-phosphate acetyl transferase (GlmU). Secondary screen.", "design": "species or system Mycobacterium tuberculosis H37Rv"}, "[6]": {"biological_target": "Induced myeloid leukemia cell differentiation protein Mcl-1 (Homo sapiens, UniProt Q07820)", "sequence (Q07820 whole entry)": "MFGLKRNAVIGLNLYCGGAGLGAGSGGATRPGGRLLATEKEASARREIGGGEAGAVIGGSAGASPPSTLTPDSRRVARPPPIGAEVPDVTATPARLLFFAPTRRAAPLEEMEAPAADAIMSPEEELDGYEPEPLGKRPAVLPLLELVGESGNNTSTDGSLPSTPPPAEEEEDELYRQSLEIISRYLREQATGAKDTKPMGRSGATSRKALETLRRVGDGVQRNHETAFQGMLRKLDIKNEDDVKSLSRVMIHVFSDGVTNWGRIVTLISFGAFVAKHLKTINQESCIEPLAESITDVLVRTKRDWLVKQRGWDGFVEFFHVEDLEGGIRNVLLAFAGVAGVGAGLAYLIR", "assay_type": "functional"}, "[7]": {"test": "NIH-3T3 fibroblast cytotoxicity, dose response, cytotoxicity control, cell-based, fluorescence, Alamar Blue, secondary assay (AID 2327);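 further: NIH-3T3 mouse fibroblasts cultured with fluconazole at 8 µg/mL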", "assay_type": "functional"}, "[8]": {"biological_target": "T2, Zinc finger protein mex-5 (Caenorhabditis elegans, UniProt Q9XUB2)", "T2 sequence (Q9XUB2 whole entry)": "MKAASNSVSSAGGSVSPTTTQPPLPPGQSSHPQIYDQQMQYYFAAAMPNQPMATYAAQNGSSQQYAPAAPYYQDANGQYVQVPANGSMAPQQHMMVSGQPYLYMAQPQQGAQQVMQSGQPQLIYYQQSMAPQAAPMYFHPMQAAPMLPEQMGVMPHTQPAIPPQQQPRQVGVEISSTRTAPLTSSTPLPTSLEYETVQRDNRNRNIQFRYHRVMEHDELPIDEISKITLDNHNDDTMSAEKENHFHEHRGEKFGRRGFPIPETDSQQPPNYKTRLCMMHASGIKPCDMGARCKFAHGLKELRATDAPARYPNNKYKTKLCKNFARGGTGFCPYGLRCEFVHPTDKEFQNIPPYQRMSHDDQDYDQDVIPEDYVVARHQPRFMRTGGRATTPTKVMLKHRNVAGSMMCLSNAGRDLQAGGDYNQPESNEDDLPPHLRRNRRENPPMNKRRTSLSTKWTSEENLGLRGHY", "test": "MEX-5/TCR-2 RNA interaction inhibitors, dose response, biochemical, C. elegans, fluorescence polarization (AID 1960)"}, "[9]": {"test": "C. albicans growth with fluconazole, confirmation, fluorescence, retest (AID 2467)", "assay_type": "functional, cell-based"}, "[10]": {"biological_target": "T3, RNA-binding protein pos-1 (Caenorhabditis elegans, UniProt G5EF15)", "T3 sequence (G5EF15 whole entry)": "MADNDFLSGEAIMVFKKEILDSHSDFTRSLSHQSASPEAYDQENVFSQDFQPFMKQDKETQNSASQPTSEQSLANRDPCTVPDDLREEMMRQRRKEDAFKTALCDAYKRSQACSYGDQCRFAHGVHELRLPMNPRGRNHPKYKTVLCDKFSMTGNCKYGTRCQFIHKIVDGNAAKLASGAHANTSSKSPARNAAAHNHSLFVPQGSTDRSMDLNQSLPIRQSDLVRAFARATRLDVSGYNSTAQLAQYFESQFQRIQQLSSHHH", "test": "inhibitors of POS-1/mex-3 RNA binding, dose response, biochemical, fluorescence polarization (AID 1964);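 further: purified POS-1 fused to maltose binding protein made in E. coli; potency of compounds blocking POS-1 binding to fluorescent RNA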"}, "NADPH oxidase 1 [11]": {"biological_target": "T4, NADPH oxidase 1 (Homo sapiens, UniProt Q9Y5S8)", "T4 sequence (Q9Y5S8 whole entry)": "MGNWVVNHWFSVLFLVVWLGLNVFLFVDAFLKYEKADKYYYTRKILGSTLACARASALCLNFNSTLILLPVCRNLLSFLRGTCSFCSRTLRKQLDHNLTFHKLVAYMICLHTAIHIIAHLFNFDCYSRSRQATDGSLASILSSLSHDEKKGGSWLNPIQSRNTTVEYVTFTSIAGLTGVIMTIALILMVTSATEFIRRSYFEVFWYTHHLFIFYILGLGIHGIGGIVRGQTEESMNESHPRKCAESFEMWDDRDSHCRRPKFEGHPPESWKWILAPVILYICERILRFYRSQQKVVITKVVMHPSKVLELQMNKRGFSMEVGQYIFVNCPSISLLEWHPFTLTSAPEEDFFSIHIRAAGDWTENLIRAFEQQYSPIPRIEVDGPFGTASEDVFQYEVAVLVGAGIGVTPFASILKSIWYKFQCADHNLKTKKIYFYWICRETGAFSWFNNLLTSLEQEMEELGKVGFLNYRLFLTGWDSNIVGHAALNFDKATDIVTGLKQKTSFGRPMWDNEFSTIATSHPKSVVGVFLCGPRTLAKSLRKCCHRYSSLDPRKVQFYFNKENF", "test": "Luminescence-based cell-based dose response assay to identify inhibitors of NADPH oxidase 1 (NOX1).", "assay_type": "functional"}, "NADPH oxidase 1 [12]": {"biological_target": "T4, NADPH oxidase 1", "test": "Late-stage luminescence-based cell-based dose response assay to identify inhibitors of NADPH oxidase 1 (NOX1): Synthesized analogs.", "assay_type": "functional"}, "Ion channel NompC": {"biological_target": "Ion channel NompC (Danio rerio, UniProt Q7T1G6)", "sequence (Q7T1G6 whole entry)": "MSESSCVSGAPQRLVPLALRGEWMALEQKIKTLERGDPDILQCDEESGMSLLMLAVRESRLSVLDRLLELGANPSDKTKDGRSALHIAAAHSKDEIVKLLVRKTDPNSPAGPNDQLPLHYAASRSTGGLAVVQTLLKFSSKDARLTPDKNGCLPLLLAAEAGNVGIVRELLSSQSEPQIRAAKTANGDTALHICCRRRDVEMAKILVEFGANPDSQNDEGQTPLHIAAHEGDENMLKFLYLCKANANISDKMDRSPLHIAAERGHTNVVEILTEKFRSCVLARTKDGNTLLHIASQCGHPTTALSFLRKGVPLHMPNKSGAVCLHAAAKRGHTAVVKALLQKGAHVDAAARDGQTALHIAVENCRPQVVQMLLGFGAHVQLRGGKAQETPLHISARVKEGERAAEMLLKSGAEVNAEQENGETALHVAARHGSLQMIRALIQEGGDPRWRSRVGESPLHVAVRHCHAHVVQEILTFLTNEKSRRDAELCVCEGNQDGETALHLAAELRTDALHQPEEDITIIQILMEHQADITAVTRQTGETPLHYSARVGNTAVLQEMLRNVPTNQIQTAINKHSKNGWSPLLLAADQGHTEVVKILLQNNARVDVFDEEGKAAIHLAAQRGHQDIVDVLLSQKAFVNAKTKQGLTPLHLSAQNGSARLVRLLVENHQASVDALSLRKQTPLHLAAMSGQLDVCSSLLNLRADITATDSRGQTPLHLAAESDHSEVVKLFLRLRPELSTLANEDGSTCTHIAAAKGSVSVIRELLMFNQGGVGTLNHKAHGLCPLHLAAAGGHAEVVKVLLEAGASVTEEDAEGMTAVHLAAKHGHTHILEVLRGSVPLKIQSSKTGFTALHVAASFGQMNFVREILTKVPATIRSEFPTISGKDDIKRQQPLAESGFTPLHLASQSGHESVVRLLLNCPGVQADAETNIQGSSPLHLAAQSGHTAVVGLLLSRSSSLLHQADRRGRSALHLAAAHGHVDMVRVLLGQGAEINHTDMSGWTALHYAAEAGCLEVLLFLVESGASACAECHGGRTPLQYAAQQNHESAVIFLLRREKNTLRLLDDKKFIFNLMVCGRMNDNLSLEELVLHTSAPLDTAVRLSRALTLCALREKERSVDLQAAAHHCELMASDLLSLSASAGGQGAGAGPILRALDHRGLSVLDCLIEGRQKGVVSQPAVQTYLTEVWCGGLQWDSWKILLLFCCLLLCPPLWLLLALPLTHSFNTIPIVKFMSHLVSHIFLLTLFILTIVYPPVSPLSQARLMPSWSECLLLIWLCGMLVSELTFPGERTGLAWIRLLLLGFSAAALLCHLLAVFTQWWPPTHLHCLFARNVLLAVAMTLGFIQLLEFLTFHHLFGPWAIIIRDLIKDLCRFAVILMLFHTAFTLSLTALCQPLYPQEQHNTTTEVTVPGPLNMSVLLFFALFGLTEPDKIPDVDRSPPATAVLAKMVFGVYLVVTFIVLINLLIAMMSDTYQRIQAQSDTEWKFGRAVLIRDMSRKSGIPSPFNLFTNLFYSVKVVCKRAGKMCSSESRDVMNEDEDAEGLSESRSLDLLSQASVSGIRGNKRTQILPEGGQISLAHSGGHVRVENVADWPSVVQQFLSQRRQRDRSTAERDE", "test": "Fluorescence counterscreen assay for TRPML3 agonists: dose response cell-based high-throughput screening assay to identify agonists of the transient receptor potential channel N1 (TRPN1). [Related pubchem assays: 1526, 1424, 1448 ]", "assay_type": "functional"}, "Mucolipin-3": {"biological_target": "Mucolipin-3 (Homo sapiens, UniProt Q8TDD5)", "sequence (Q8TDD5 whole entry)": "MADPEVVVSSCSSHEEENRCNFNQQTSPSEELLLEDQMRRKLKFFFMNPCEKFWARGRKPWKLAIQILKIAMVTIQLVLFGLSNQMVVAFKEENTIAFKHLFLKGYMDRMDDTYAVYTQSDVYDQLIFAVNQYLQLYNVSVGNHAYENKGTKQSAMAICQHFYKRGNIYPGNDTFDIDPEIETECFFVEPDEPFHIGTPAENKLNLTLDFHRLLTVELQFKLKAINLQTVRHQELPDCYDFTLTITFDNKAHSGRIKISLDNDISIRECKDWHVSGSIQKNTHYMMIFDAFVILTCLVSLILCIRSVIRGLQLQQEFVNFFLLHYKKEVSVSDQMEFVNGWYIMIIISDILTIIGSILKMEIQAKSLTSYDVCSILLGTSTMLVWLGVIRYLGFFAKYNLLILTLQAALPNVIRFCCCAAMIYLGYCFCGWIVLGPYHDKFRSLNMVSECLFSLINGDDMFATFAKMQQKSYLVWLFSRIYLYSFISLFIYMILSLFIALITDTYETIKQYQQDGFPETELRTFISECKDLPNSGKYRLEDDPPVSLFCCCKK", "test": "Dose response cell-based high-throughput screening assay for agonists of the transient receptor potential channel ML3 (TRPML3). [Related pubchem assays: 1526, 1424, 1448 ]", "assay_type": "functional"}, "[13]": {"biological_target": "T5, Polyadenylate-binding protein 1 (Homo sapiens, UniProt P11940)", "T5 sequence (P11940 whole entry)": "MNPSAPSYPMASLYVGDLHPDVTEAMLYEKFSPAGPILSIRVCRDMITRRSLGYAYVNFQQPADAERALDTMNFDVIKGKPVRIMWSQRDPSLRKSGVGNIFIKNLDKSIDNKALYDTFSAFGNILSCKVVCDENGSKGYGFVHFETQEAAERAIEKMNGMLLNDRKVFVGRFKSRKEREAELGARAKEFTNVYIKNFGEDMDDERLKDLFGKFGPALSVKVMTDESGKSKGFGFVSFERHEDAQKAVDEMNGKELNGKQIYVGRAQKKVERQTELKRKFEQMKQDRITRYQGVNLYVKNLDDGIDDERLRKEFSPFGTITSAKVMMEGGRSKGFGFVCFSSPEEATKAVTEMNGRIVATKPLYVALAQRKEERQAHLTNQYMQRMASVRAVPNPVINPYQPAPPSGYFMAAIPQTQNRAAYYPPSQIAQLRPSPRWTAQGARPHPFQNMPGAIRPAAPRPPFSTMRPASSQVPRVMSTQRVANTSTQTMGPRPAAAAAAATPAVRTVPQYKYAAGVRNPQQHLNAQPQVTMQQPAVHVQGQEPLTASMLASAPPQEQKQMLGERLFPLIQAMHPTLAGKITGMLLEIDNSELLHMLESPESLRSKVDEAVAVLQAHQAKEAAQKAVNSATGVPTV", "test": "PABP1 MLLE–PAM2 binding inhibitor potency, dose response, biochemical, fluorescence polarization, FITC-PAM2 peptide (AID 602259)", "assay_type": "functional", "details": "read-out: IC50_Mean"}, "[14]": {"biological_target": "T5, Polyadenylate-binding protein 1", "test": "PABP1 MLLE–PAM2 interaction inhibitors, dose response, miRNA deadenylation inhibitor project, biochemical, fluorescence polarization, Cy5-PAM2 peptide, secondary (AID 602260)", "assay_type": "functional", "details": "read-out: IC50_Mean"}, "[15]": {"test": "A High Throughput Confirmatory Assay used to Identify Novel Compounds that Inhibit Mycobacterium Tuberculosis in the absence of Glycerol.", "assay_type": "functional"}, "[16]": {"biological_target": "DNA dC->dU-editing enzyme APOBEC-3A (Homo sapiens, UniProt P31941)", "sequence (P31941 whole entry)": "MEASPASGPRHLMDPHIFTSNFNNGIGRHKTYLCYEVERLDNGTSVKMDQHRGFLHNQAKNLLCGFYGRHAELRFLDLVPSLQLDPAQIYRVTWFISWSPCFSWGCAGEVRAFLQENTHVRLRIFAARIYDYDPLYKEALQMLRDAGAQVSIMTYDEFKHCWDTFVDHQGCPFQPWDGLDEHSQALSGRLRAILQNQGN", "test": "APOBEC3A DNA deaminase inhibitors, dose response, biochemical (AID 504722)", "assay_type": "functional"}, "[17]": {"biological_target": "T6, Mannose-6-phosphate isomerase (Homo sapiens, UniProt P34949)", "T6 sequence (P34949 whole entry)": "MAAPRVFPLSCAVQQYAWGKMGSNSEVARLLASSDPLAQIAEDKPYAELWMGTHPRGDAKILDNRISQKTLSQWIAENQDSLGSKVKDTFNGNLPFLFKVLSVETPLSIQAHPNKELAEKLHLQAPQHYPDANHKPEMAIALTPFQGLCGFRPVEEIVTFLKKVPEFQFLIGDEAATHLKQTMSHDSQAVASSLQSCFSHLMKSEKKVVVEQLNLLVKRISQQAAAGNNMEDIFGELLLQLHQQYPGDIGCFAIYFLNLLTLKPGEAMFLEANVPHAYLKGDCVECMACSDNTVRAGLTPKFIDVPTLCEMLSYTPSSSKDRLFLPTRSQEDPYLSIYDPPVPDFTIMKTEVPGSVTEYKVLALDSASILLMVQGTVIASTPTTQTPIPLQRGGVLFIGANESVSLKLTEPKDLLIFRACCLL", "test": "PMI enzyme inhibitors, confirmation, biochemical, fluorescence intensity (AID 1535)"}, "[18]": {"biological_target": "DNA dC->dU-editing enzyme APOBEC-3G (Homo sapiens, UniProt Q9HC16)", "sequence (Q9HC16 whole entry)": "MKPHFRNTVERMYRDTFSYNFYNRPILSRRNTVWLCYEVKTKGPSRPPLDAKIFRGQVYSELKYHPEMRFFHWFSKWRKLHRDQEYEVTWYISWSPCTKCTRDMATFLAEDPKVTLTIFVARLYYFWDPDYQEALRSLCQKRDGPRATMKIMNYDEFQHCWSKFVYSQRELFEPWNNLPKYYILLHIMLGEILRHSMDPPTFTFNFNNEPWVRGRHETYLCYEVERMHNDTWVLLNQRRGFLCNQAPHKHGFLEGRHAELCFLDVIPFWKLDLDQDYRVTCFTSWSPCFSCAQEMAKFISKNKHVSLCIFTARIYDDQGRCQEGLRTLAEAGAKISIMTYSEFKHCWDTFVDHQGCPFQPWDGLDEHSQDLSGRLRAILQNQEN", "test": "Dose Response confirmation of small molecule APOBEC3G DNA Deaminase Inhibitors via a fluorescence-based single-stranded DNA deaminase assay. [Related pubchem assays (depositor defined):AID493012, AID493028]", "assay_type": "functional"}, "[19]": {"biological_target": "T6, Mannose-6-phosphate isomerase", "test": "inhibitors of human PMI, primary screen, biochemical, fluorescence intensity, coupled assay (AID 1209)"}, "[20]": {"biological_target": "FAD-linked sulfhydryl oxidase ALR (Homo sapiens, UniProt P55789)", "sequence (P55789 whole entry)": "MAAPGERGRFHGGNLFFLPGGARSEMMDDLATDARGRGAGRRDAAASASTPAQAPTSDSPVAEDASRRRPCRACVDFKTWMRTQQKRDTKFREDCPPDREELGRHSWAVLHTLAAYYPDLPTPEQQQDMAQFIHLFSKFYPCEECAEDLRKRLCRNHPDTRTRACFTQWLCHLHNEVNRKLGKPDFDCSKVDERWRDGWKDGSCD", "test": "inhibitors of human ALR sulfhydryl oxidase, dose response, biochemical, H2O2 detection, luminescence, cherry-pick (AID 493248)"}, "Phosphomannomutase 2": {"biological_target": "T7, Phosphomannomutase 2 (Homo sapiens, UniProt O15305)", "T7 sequence (O15305 whole entry)": "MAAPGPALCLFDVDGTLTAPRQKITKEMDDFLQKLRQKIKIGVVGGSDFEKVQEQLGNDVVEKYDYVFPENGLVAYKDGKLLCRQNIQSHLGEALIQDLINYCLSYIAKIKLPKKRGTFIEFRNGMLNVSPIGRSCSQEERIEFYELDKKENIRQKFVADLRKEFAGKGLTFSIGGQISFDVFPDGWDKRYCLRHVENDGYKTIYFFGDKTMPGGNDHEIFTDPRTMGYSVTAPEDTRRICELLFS", "test": "Counter screen SAR assay for PMM2 inhibitors via a fluorescence intensity assay. [Related pubchem assays (depositor defined):AID1545, AID1574]"}},
  "note": "Active and inactive are the calls of the source.",
  "data": [
    {"smiles": "O=C(N/N=C/c1ccco1)c1ccc(C(=O)N/N=C/c2ccco2)o1", "values": [
      {"measurement": "IC50", "setting": "[1]", "result": "4.92 µM (active)"},
      {"measurement": "IC50", "setting": "[2]", "result": "114 µM (inactive)"},
      {"measurement": "EC50", "setting": "[3]", "result": "5.21 µM (active)"}
    ]},
    {"smiles": "CN(C)S(=O)(=O)c1cccc(NC(=S)N/N=C/c2ccc(O)c(O)c2O)c1", "values": [
      {"measurement": "EC50", "setting": "[4]", "result": "> 100 µM (active)"},
      {"measurement": "IC50", "setting": "[5]", "result": "68.4 µM (active)"},
      {"measurement": "IC50", "setting": "[6]", "result": "1.17 µM (active)"},
      {"measurement": "EC50", "setting": "[7]", "result": "> 150 µM (inactive)"},
      {"measurement": "EC50", "setting": "[8]", "result": "3.48 µM (active)"},
      {"measurement": "EC50", "setting": "[9]", "result": "> 38 µM (not active)"},
      {"measurement": "EC50", "setting": "[10]", "result": "15 µM (active)"}
    ]},
    {"smiles": "O=S1(=O)c2ccccc2Nc2ccccc21", "values": [
      {"measurement": "IC50", "setting": "NADPH oxidase 1 [11]", "result": "6.6 µM (active)"},
      {"measurement": "IC50", "setting": "NADPH oxidase 1 [12]", "result": "> 50 µM (not active)"}
    ]},
    {"smiles": "O=C1C(Cl)=C(N2CCN(Cc3ccccc3)CC2)C(=O)N1Cc1ccccc1", "values": [
      {"measurement": "EC50", "setting": "Ion channel NompC", "result": "> 29.9 µM (not active)"},
      {"measurement": "EC50", "setting": "Mucolipin-3", "result": "5.29 µM (active)"},
      {"measurement": "IC50", "setting": "[13]", "result": "> 66 µM (inactive)"},
      {"measurement": "IC50", "setting": "[14]", "result": "> 66 µM (inactive)"}
    ]},
    {"smiles": "CCc1nc2ccccc2c(C(=O)Nc2cc(C)ccc2C)c1C", "values": [
      {"measurement": "IC50", "setting": "[15]", "result": "> 100 µM (active)"}
    ]},
    {"smiles": "COc1ccc(-c2n[nH]c(=S)[nH]2)cc1OC", "values": [
      {"measurement": "IC50", "setting": "[16]", "result": "> 100 µM (inactive)"},
      {"measurement": "IC50", "setting": "[17]", "result": "29 µM (active)"},
      {"measurement": "IC50", "setting": "[18]", "result": "3.45 µM (active)"},
      {"measurement": "IC50", "setting": "[19]", "result": "8.55 µM (active)"},
      {"measurement": "AC50", "setting": "[20]", "result": "0.011 µM (active)"},
      {"measurement": "IC50", "setting": "Phosphomannomutase 2", "result": "> 100 µM (inactive)"}
    ]}
  ]
}
